Measurements taken from patent US9695155B2, “Herbicidal substituted pyrimidinyloxy benzene compounds” (E. I. DU PONT DE NEMOURS AND COMPANY, priority 2013, dated 2017).

What was measured:
barnyardgrass [1] = assay: Test A postemergence; type: in vivo, Echinochloa crus-galli; conditions: for Plant response rating, Barnyardgrass: 0 to 100 scale, 0 no effect, 100 complete control
Summary of the method: (§1)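 Visual 0–100 rating (100 = complete control) taken about 10 d post-treatment relative to untreated checks. Preemergence: directed soil spray on sown loam/sand pots. Postemergence: seedlings 2–10 cm, 1–2 leaf. Non-phytotoxic solvent formulation with surfactant.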

sedge, umbrella = assay: Test B flooded paddy test; type: in vivo, Cyperus difformis; conditions: Flood, 250 g ai/ha; 0 to 100 scale where 0 is no effect and 100 is complete control
Summary of the method: (§2)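 Post-emergence paddy-water application at the 2-leaf stage, with 3 cm flood kept for the whole test. Response was judged visually relative to controls after 13 to 15 greenhouse days, 0 indicating no effect and 100 complete control.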

Italian ryegrass [2] = assay: Test A preemergence; type: in vivo, Lolium multiflorum
Summary of the method: as §1

kochia [3] = assay: Test A preemergence; type: in vivo, Kochia scoparia
Summary of the method: as §1

Heteranthera limosa = assay: Test B flooded paddy test; type: in vivo; conditions: Flood, 250 g ai/ha; 0 to 100 scale where 0 is no effect and 100 is complete control
Summary of the method: as §2

galium = assay: Test A postemergence; type: in vivo, Galium aparine
Summary of the method: as §1

rice = assay: Test B flooded paddy test; type: in vivo, Oryza sativa; conditions: Flood, 250 g ai/ha; 0 to 100 scale where 0 is no effect and 100 is complete control
Summary of the method: as §2

giant foxtail [4] = assay: Test A postemergence; type: in vivo, Setaria faberii; conditions: for Plant response rating, Foxtail, Giant: 0 to 100 scale, 0 no effect, 100 complete control
Summary of the method: as §1

Italian ryegrass [5] = assay: Test A postemergence; type: in vivo, Lolium multiflorum
Summary of the method: as §1

giant foxtail [6] = assay: Test A preemergence; type: in vivo, Setaria faberii
Summary of the method: as §1

kochia [7] = assay: Test A postemergence; type: in vivo, Kochia scoparia
Summary of the method: as §1

ragweed [8] = assay: Test A preemergence; type: in vivo, Ambrosia elatior
Summary of the method: as §1

blackgrass = assay: Test A postemergence; type: in vivo, Alopecurus myosuroides
Summary of the method: as §1

barnyardgrass [9] = assay: Test A preemergence; type: in vivo, Echinochloa crus-galli
Summary of the method: as §1

pigweed [10] = assay: Test A preemergence; type: in vivo, Amaranthus retroflexus
Summary of the method: as §1

ragweed [11] = assay: Test A postemergence; type: in vivo, Ambrosia elatior
Summary of the method: as §1

pigweed [12] = assay: Test A postemergence; type: in vivo, Amaranthus retroflexus; conditions: for Plant response rating, Pigweed: 0 to 100 scale, 0 no effect, 100 complete control
Summary of the method: as §1

barnyardgrass [13] = assay: Test B flooded paddy test; type: in vivo, Echinochloa crus-galli; conditions: Flood, 250 g ai/ha; 0 to 100 scale where 0 is no effect and 100 is complete control
Summary of the method: as §2

wheat = assay: Test A postemergence; type: in vivo, Triticum aestivum
Summary of the method: as §1

corn = assay: Test A postemergence; type: in vivo, Zea mays; conditions: for Plant response rating, Corn: 0 to 100 scale, 0 no effect, 100 complete control
Summary of the method: as §1

[14] = 125 g ai/ha, 0 to 100 scale where 0 is no effect and 100 is complete control
[15] = 500 g ai/ha, 0 to 100 scale where 0 is no effect and 100 is complete control
[16] = 31 g ai/ha, 0 to 100 scale where 0 is no effect and 100 is complete control, visual, approximately 10 days
[17] = 31 g ai/ha, 0 to 100 scale, 0 no effect, 100 complete control
[18] = 125 g ai/ha, 0 to 100 scale, 0 no effect, 100 complete control

Structure (SMILES): N#Cc1cccc(Oc2ncc(Cl)cn2)c1-n1cc(SC(F)(F)F)cn1 [Compound 143, 3-[(5-chloro-2-pyrimidinyl)oxy]-2-[4-(trifluoromethylthio)-1H-pyrazol-1-yl]-benzonitrile]
- Barnyardgrass plant response rating (barnyardgrass [1]; [14]): 0
- pest or weed control at 500 g/ha (barnyardgrass [1]; Echinochloa crus-galli, post-emergence, 240 h, 500 g ai/ha, 0 to 100 scale where 0 is no effect and 100 is complete control, read-out: Plant response rating, Barnyardgrass): 80%
- Plant response rating, Sedge, Umbrella (sedge, umbrella): 0
- Plant response rating, Ryegrass, Italian (Italian ryegrass [2]; [14]): 0
- Ryegrass, Italian plant response rating (Italian ryegrass [2]; [15]): 20
- Plant response rating, Kochia (kochia [3]; [14]): 50
- Kochia plant response rating (kochia [3]; [15]): 100
- Plant response rating, Ducksalad (Heteranthera limosa): 40
- Galium plant response rating (galium; [14]): 30
- Plant response rating, Galium (galium; [15]): 100
- Plant response rating, Rice (rice): 0
- Foxtail, Giant plant response rating (giant foxtail [4]; [14]): 0
- pest or weed control at 500 g/ha (giant foxtail [4]; Setaria faberi, post-emergence, 240 h, 500 g ai/ha, 0 to 100 scale where 0 is no effect and 100 is complete control, read-out: Plant response rating, Foxtail, Giant): 100%
- Ryegrass, Italian plant response rating (Italian ryegrass [5]; [14]): 0
- Plant response rating, Ryegrass, Italian (Italian ryegrass [5]; [15]): 90
- Plant response rating, Foxtail, Giant (giant foxtail [6]; [14]): 80
- pest or weed control at 500 g/ha (giant foxtail [6]; Setaria faberi, pre-emergence, 240 h, 500 g ai/ha, 0 to 100 scale where 0 is no effect and 100 is complete control, read-out: Foxtail, Giant plant response rating): 100%
- Kochia plant response rating (kochia [7]; [14]): 30
- Plant response rating, Kochia (kochia [7]; [15]): 90
- Plant response rating, Ragweed (ragweed [8]; [14]): 0
- Ragweed plant response rating (ragweed [8]; [15]): 20
- Blackgrass plant response rating (blackgrass; [14]): 0
- Plant response rating, Blackgrass (blackgrass; [15]): 90
- Plant response rating, Barnyardgrass (barnyardgrass [9]; [14]): 30
- pest or weed control at 500 g/ha (barnyardgrass [9]; Echinochloa crus-galli, pre-emergence, 240 h, 500 g ai/ha, 0 to 100 scale where 0 is no effect and 100 is complete control, read-out: Barnyardgrass plant response rating): 100%
- Plant response rating, Pigweed (pigweed [10]; [14]): 90
- pest or weed control at 500 g/ha (pigweed [10]; Amaranthus retroflexus, pre-emergence, 240 h, 500 g ai/ha, 0 to 100 scale where 0 is no effect and 100 is complete control, read-out: Pigweed plant response rating): 100%
- Ragweed plant response rating (ragweed [11]; [14]): 0
- Plant response rating, Ragweed (ragweed [11]; [15]): 100
- Pigweed plant response rating (pigweed [12]; [14]): 70
- pest or weed control at 500 g/ha (pigweed [12]; Amaranthus retroflexus, post-emergence, 500 g ai/ha, 0 to 100 scale where 0 is no effect and 100 is complete control, read-out: Plant response rating, Pigweed): 100%
- Plant response rating, Barnyardgrass (barnyardgrass [13]): 0
- Wheat plant response rating (wheat; [14]): 0
- Plant response rating, Wheat (wheat; [15]): 30
- Corn plant response rating (corn; [14]): 30
- Corn plant response rating (crop injury, 0 = no effect, 100 = complete kill) at 500 g/ha (corn; Zea mays, post-emergence, 240 h, 500 g ai/ha, 0 to 100 scale where 0 is no effect and 100 is complete control): 40%

Structure (SMILES): Fc1cnc(Oc2ccccc2-n2cc(SC(F)(F)F)cn2)nc1 [Compound 247]
- Plant response rating, Barnyardgrass (barnyardgrass [1]; 31 g ai/ha): 0
- Plant response rating, Barnyardgrass (barnyardgrass [1]; 125 g ai/ha): 20
- Plant response rating, Sedge, Umbrella (sedge, umbrella): 50
- Plant response rating, Ryegrass, Italian (Italian ryegrass [2]; [16]): 0
- Ryegrass, Italian plant response rating (0 to 100 scale) (Italian ryegrass [2]; 125 g ai/ha): 0
- Plant response rating, Kochia (kochia [3]; [16]): 0
- Kochia plant response rating (0 to 100 scale) (kochia [3]; 125 g ai/ha): 60
- Plant response rating, Ducksalad (Heteranthera limosa): 65
- Plant response rating, Galium (galium; [17]): 10
- Plant response rating, Galium (galium; [18]): 30
- Plant response rating, Rice (rice): 0
- Plant response rating, Foxtail, Giant (giant foxtail [4]; 31 g ai/ha): 0
- Plant response rating, Foxtail, Giant (giant foxtail [4]; 125 g ai/ha): 10
- Plant response rating, Ryegrass, Italian (Italian ryegrass [5]; [17]): 0
- Plant response rating, Ryegrass, Italian (Italian ryegrass [5]; [18]): 0
- Plant response rating, Foxtail, Giant (giant foxtail [6]; [16]): 0
- Foxtail, Giant plant response rating (0 to 100 scale) (giant foxtail [6]; 125 g ai/ha): 100
- Plant response rating, Kochia (kochia [7]; [17]): 20
- Plant response rating, Kochia (kochia [7]; [18]): 40
- Plant response rating, Ragweed (ragweed [8]; [16]): 0
- Ragweed plant response rating (0 to 100 scale) (ragweed [8]; 125 g ai/ha): 0
- Plant response rating, Blackgrass (blackgrass; [17]): 0
- Plant response rating, Blackgrass (blackgrass; [18]): 40
- Plant response rating, Barnyardgrass (barnyardgrass [9]; [16]): 0
- Barnyardgrass plant response rating (0 to 100 scale, 0 is no effect, 100 is complete control) (barnyardgrass [9]; 125 g ai/ha): 70
- Plant response rating, Pigweed (pigweed [10]; [16]): 0
- Pigweed plant response rating (0 to 100 scale) (pigweed [10]; 125 g ai/ha): 80
- Plant response rating, Ragweed (ragweed [11]; [17]): 0
- Plant response rating, Ragweed (ragweed [11]; [18]): 0
- Plant response rating, Pigweed (pigweed [12]; 31 g ai/ha): 10
- Plant response rating, Pigweed (pigweed [12]; 125 g ai/ha): 20
- Plant response rating, Barnyardgrass (barnyardgrass [13]): 0
- Plant response rating, Wheat (wheat; [17]): 0
- Plant response rating, Wheat (wheat; [18]): 20
- Plant response rating, Corn (corn; 31 g ai/ha): 0
- Plant response rating, Corn (corn; 125 g ai/ha): 20

Structure (SMILES): COc1cccc(Oc2ncc(Cl)cn2)c1-n1cc(Cl)cn1 [Compound 169]
- Plant response rating, Barnyardgrass (barnyardgrass [1]; 31 g ai/ha): 0
- Barnyardgrass plant response rating (barnyardgrass [1]; [14]): 20
- Plant response rating, Sedge, Umbrella (sedge, umbrella): 75
- Plant response rating, Ryegrass, Italian (Italian ryegrass [2]; [16]): 0
- Ryegrass, Italian plant response rating (0 to 100 scale) (Italian ryegrass [2]; 125 g ai/ha): 0
- Plant response rating, Kochia (kochia [3]; [16]): 0
- Kochia plant response rating (0 to 100 scale) (kochia [3]; 125 g ai/ha): 0
- Plant response rating, Ducksalad (Heteranthera limosa): 65
- Plant response rating, Galium (galium; [17]): 10
- Galium plant response rating (galium; [14]): 40
- Plant response rating, Rice (rice): 15
- Plant response rating, Foxtail, Giant (giant foxtail [4]; 31 g ai/ha): 0
- Foxtail, Giant plant response rating (giant foxtail [4]; [14]): 40
- Plant response rating, Ryegrass, Italian (Italian ryegrass [5]; [17]): 0
- Ryegrass, Italian plant response rating (Italian ryegrass [5]; [14]): 0
- Plant response rating, Foxtail, Giant (giant foxtail [6]; [16]): 30
- Plant response rating, Foxtail, Giant (giant foxtail [6]; [14]): 80
- Plant response rating, Kochia (kochia [7]; [17]): 0
- Kochia plant response rating (kochia [7]; [14]): 10
- Plant response rating, Ragweed (ragweed [8]; [16]): 0
- Ragweed plant response rating (0 to 100 scale) (ragweed [8]; 125 g ai/ha): 0
- Plant response rating, Blackgrass (blackgrass; [17]): 0
- Blackgrass plant response rating (blackgrass; [14]): 30
- Plant response rating, Barnyardgrass (barnyardgrass [9]; [16]): 10
- Plant response rating, Barnyardgrass (barnyardgrass [9]; [14]): 50
- Plant response rating, Pigweed (pigweed [10]; [16]): 0
- Pigweed plant response rating (0 to 100 scale) (pigweed [10]; 125 g ai/ha): 80
- Plant response rating, Ragweed (ragweed [11]; [17]): 10
- Ragweed plant response rating (ragweed [11]; [14]): 60
- Plant response rating, Pigweed (pigweed [12]; 31 g ai/ha): 10
- Pigweed plant response rating (pigweed [12]; [14]): 20
- Plant response rating, Barnyardgrass (barnyardgrass [13]): 25
- Plant response rating, Wheat (wheat; [17]): 0
- Wheat plant response rating (wheat; [14]): 0
- Plant response rating, Corn (corn; 31 g ai/ha): 0
- Corn plant response rating (corn; [14]): 0
